Laboratory results taken from US20250058027A1, “Nanoyarns as Drug-Releasing Facilitator” (Amrita Vishwa Vidyapeetham, priority 2023, published 2025).
Structures can show the parent of a compound that is named as a salt. Where two headings read alike, the source gives them in different places.

Set-up: species or system Yorkshire-desi crossbred pigs
Settings: pig, in vivo
Excerpt: To assess the feasibility and safety of the developed device, in vivo implantation of nanostent was done in the porcine bile duct under fluoroscopic guidance via ERCP procedure. In this embodiment, in a total of 14 animals (Yorkshire-desi crossbred pigs), nanostents and control SEMS (SEMS without nanoyarns) were implanted and analyzed for two-time points (3 and 5 months). The fluoroscopic images of the control and nanostent implanted bile duct reveal the proper deployment of the stents in the bile duct. This points to the feasibility of implantation of the nanoyarn-integrated SEMS in vivo.
Endoscopic follow-up was performed in the animals at regular intervals. Blood and bile were collected for analysis of the drug content at intermittent time periods. These were then tested for the presence of GEM and its metabolite by HPLC. GEM and its metabolite DFDU could not be detected in blood up to the limit of its detection i.e., 300 ng. […] The drug content in bile was also undetectable, owing to the drug release happening in a continuously flowing bile fluid. However, the presence of remnant drug could be measured in the nanoyarns taken from explanted stents at 3 and 5 months, to be ˜1000 μg and 50 μg respectively. This confirms that the nanoyarn integrated with the stent can provide a localized drug release over prolonged time periods.

Compound | drug/metabolite in blood | drug/metabolite in blood (Yorkshire-desi crossbred) | drug content in bile
O=c1ccn(C2OC(CO)C(O)C2(F)F)c(=O)[nH]1 (stereo not drawn) [DFDU] | < 300 ng |  | 
Nc1ccn([C@@H]2O[C@H](CO)[C@@H](O)C2(F)F)c(=O)n1 [GEM, Gemcitabine hydrochloride] |  | < 300 ng | undetectable
